Patent US10232047B2, “Topical oil composition for the treatment of fungal infections” (VYOME BIOSCIENCES PVT LTD., priority 2011, dated 2019)
Each block holds one molecule with its values, some of them ahead of it.

Assays:
[1] = system: Malassezia furfur (MTCC 1374); assay: MIC by agar dilution method in Leeming Notman Medium; assay type: cell-based; design: key: “+” indicates growth of fungus; “−” indicates no growth of fungus; conditions: M. furfur
Description: The Minimum Inhibitory Concentration (MIC) is considered as an index for indicating Anti-fungal efficacy. Therefore lower the value of MIC of the composition, the better is its anti-fungal efficacy.
Method: The in vitro activities of some of the oil compositions containing piroctone olamine against Malassezia furfur (MTCC 1374) were determined by agar dilution methods (Jan Faergemann, et al Acta Derm Venereol, (2006), 86:312; Irith Wiegand, et al Nature Protocols (2008), 3:163) Appropriate dilutions of solubilized antifungal compositions were added to molten Leeming Notman Medium. Once the plates were set, M. furfur innoculum adjusted to appropriate cfu/ml was streaked on the agar plates and incubated for 6 days. […] The MIC is defined as as the lowest concentration of antifungal agents that inhibits visible growth of fungus.
Method: The in vitro activities of some of the oil compositions containing ketoconazole against Malassezia furfur (MTCC 1374) were determined by agar dilution methods. Appropriate dilutions of antifungal compositions were added to molten Leeming Notman Medium. Once the plates were set, M. furfur innoculum adjusted to appropriate cfu/ml was streaked on the agar plates and incubated for 6 days. […] The MIC is defined as the lowest tested dilution of antifungal active that yields no growth.
B) Study of MIC of Oil Compositions Devoid of C-11 or Greater Fatty Acids/Esters Containing Antifungal Agent Piroctone Olamine Against M. furfur Under in vitro Conditions.

M. obtusa = assay: MIC of oil compositions against M. obtusa; assay type: cell-based; design: key: “+” indicates growth of fungus; “−” indicates no growth of fungus
M. furfur (MTCC 1374) = assay: Lipid assimilation in vitro assay: growth of M. furfur on Sabouraud Dextrose agar supplemented with fatty acids/esters or oils; assay type: cell-based, Malassezia furfur; conditions: up to 6 days
Text: (§1) Malassezia species are lipophilic unipolar yeasts recognized as commensals of skin that may be pathogenic under certain conditions (Indian Journal of Medical Microbiology, (2004) 22 (3):179-181). To compare lipid requirements of the fungus most closely associated with dandruff/seborrheic dermatitis, the best studied Malassezia species is M. furfur. Lipid assimilation in vitro assay was designed to investigate lipid effect on growth of M. furfur (MTCC 1374).
Method: Briefly, Sabouraud Dextrose containing low-melt agar was melted, cooled to 38° C. Fatty acids/esters constituents eg, capric acid, caprylic acid, linoleic acid, oleic acid, lauric acid, palmitic acid, ethyl oleate, isopropyl myristate and oils containing fatty acid/esters eg, coconut oil, mustard oil etc., were added to study the growth of the fungus (Kaw Bing CHUA, et al Malaysian J Pathol (2005) 27(2): 99). After solidification, agar plates were streaked with M. furfur innoculum adjusted to appropriate cfu/ml, aseptically. Positive control with 2% olive oil and negative control without fatty substance were also maintained.
as §1, with “lipophilic,” for “lipophilic”, “conditions.” for “conditions (Indian Journal of Medical Microbiology, (2004) 22 (3):179-181).”, “A lipid” for “Lipid”, “effect <C-11 fatty acid or their esters” for “effect”
Briefly, Sabouraud Dextrose containing low-melt agar was melted and cooled to 38° C. Fatty acids/esters constituents, e.g., caprylic acid, capric acid and Monocaprylate of propylene glycol, were added in 2% concentration to study the growth of the fungus. After solidification, agar plates were streaked with M. furfur innoculum adjusted to appropriate cfu/ml, aseptically. Positive control with 2% olive oil and negative control without fatty substance were also maintained.
A lipid assimilation in vitro assay was designed to investigate lipid effect >C-10 fatty acid or their esters on growth of M. furfur (MTCC 1374). Sabouraud Dextrose containing low-melt agar was melted and cooled to 38° C. Fatty acids/esters constituents, e.g. fatty acids or esters, such as lauric acid, palmitic acid, myristic acid, oleic acid, linoleic acid, isopropyl myristate, ethyl oleate, mustard oils, coconut oil were added at different concentration to study the growth of the fungus. Positive control with 2% olive oil and negative control without fatty substance were also maintained. After solidification, agar plates were streaked with M. furfur innoculum adjusted to appropriate cfu/ml, aseptically.

[2] = Table 6, compositions of Table 5
[3] = piroctone olamine oil compositions, incubated 6 days
[4] = Example 6B, different concentration (olive oil 2%)

- Growth of fungus at concentration 8 μg/ml (MIC determination) [1, 2]: +
- Growth of fungus at concentration 8 μg/ml (MIC determination) [1, 3]: +
- Growth of fungus at concentration 16 μg/ml (MIC determination) [1, 2]: +
- Growth of fungus at concentration 16 μg/ml (MIC determination) [1, 3]: +
- Growth of fungus at concentration 32 μg/ml (MIC determination) [1, 2]: −
- Growth of fungus at concentration 32 μg/ml (MIC determination) [1, 3]: −
- Growth of fungus at concentration 64 μg/ml (MIC determination) [1, 2]: −
- Growth of fungus at concentration 64 μg/ml (MIC determination) [1, 3]: −
- Growth of fungus at concentration 4 μg/ml (MIC determination) (M. obtusa; 4 μg/ml): +
- Growth of fungus at concentration 8 μg/ml (MIC determination) (M. obtusa; 8 μg/ml): +
- Growth of fungus at concentration 16 μg/ml (MIC determination) (M. obtusa; 16 μg/ml): +
- Growth of fungus at concentration 32 μg/ml (MIC determination) (M. obtusa; 32 μg/ml): −
- Growth of fungus at concentration 64 μg/ml (MIC determination) (M. obtusa; 64 μg/ml): −
Compound: Cc1cc(CC(C)CC(C)(C)C)n(O)c(=O)c1.NCCO (stereo not drawn) [PO in DMSO, Piroctone olamine]

Compound: CCCCCCCC/C=C\CCCCCCCC(=O)OCC [ethyl oleate]
- Growth of M. furfur with the substance as nutrient in culture media (M. furfur (MTCC 1374); Example 3): confluent growth
- Growth of M. furfur with the substance as nutrient in culture media (M. furfur (MTCC 1374); [4]): confluent growth

Compound: CCCCCCCCCCCC(=O)O [lauric acid]
- Growth of M. furfur with the substance as nutrient in culture media (M. furfur (MTCC 1374); Example 3): confluent growth
- Growth of M. furfur with the substance as nutrient in culture media (M. furfur (MTCC 1374); [4]): confluent growth

Compound: CCCCCCCCCCCCCC(=O)OC(C)C [isopropyl myristate]
- Growth of M. furfur with the substance as nutrient in culture media (M. furfur (MTCC 1374); Example 3): confluent growth
- Growth of M. furfur with the substance as nutrient in culture media (M. furfur (MTCC 1374); [4]): confluent growth

Compound: CCCCCCCCCC(=O)O [capric acid]
- Growth of M. furfur with the substance as nutrient in culture media (M. furfur (MTCC 1374); Example 3): no growth
- Growth of M. furfur with the substance as nutrient in culture media (M. furfur (MTCC 1374); Example 6A, 2% concentration): no growth

Compound: CCCCCCCCCCCCCC(=O)O [myristic acid]
- Growth of M. furfur with the substance as nutrient in culture media (M. furfur (MTCC 1374); [4]): confluent growth

Compound: CCCCCCCC(=O)O [caprylic acid]
- Growth of M. furfur with the substance as nutrient in culture media (M. furfur (MTCC 1374); Example 3): no growth
- Growth of M. furfur with the substance as nutrient in culture media (M. furfur (MTCC 1374); Example 6A, 2% concentration): no growth

Compound: CCCCCCCC/C=C\CCCCCCCC(=O)O [oleic acid]
- Growth of M. furfur with the substance as nutrient in culture media (M. furfur (MTCC 1374); Example 3): confluent growth
- Growth of M. furfur with the substance as nutrient in culture media (M. furfur (MTCC 1374); [4]): confluent growth

Compound: CC(=O)N1CCN(c2ccc(OCC3COC(Cn4ccnc4)(c4ccc(Cl)cc4Cl)O3)cc2)CC1 (stereo not drawn) [Keto in DMSO, Ketoconazole]
- Growth of fungus at concentration 0.0625 μg/ml (MIC determination) ([1]; 0.0625 μg/ml, ketoconazole oil compositions, incubated 6 days): +
- Growth of fungus at concentration 0.125 μg/ml (MIC determination) ([1]; 0.125 μg/ml, ketoconazole oil compositions, incubated 6 days): +
- Growth of fungus at concentration 0.25 μg/ml (MIC determination) ([1]; 0.25 μg/ml, ketoconazole oil compositions, incubated 6 days): −
- Growth of fungus at concentration 0.5 μg/ml (MIC determination) ([1]; 0.5 μg/ml, ketoconazole oil compositions, incubated 6 days): −
- Growth of fungus at concentration 1 μg/ml (MIC determination) ([1]; 1 μg/ml, ketoconazole oil compositions, incubated 6 days): −
- Growth of fungus at concentration 2 μg/ml (MIC determination) ([1]; 2 μg/ml, ketoconazole oil compositions, incubated 6 days): −

Compound: CCCCC/C=C\C/C=C\CCCCCCCC(=O)O [linoleic acid]
- Growth of M. furfur with the substance as nutrient in culture media (M. furfur (MTCC 1374); Example 3): confluent growth
- Growth of M. furfur with the substance as nutrient in culture media (M. furfur (MTCC 1374); [4]): confluent growth

Compound: CCCCCCCCCCCCCCCC(=O)O [palmitic acid]
- Growth of M. furfur with the substance as nutrient in culture media (M. furfur (MTCC 1374); Example 3): confluent growth
- Growth of M. furfur with the substance as nutrient in culture media (M. furfur (MTCC 1374); [4]): confluent growth
